Test results taken from PubChem BioAssay AID206 (DTP/NCI, 2004).
Several values for one entry are separate records, joined by “and”; a condition that tells them apart may be missing. Equal entries are not always repeated. Results filed as inconclusive are left out.

Tested on: nude mice, HT29 intrarenal xenograft, tumor weight T/C
Assay: NCI In Vivo Anticancer Drug Screen. Data for tumor model HT29;CX-1 Human Adenocarcinoma (MER+) (intrarenal inoculation) in NU/NU Swiss (nude) mice
Settings: endpoint: mean tumor weight change, higher = larger tumour
Summary of the method: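 Mice with transplanted tumors are dosed with compound while controls get vehicle only. Survival or tumor burden is then assessed per group, and the treated value is expressed relative to control.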

[1] = dose: 150.0 mg/kg/injection, schedule: Q04DX004 (sc), vehicle: saline
[2] = dose: 300.0 mg/kg/injection, schedule: Q04DX004 (sc), vehicle: saline
[3] = dose: 37.5 mg/kg/injection, schedule: Q04DX004 (sc), vehicle: Klucel (hydroxypropylcellulose) (HPC)
[4] = dose: 150.0 mg/kg/injection, schedule: Q04DX004 (sc), vehicle: Klucel (hydroxypropylcellulose) (HPC)
[5] = dose: 300.0 mg/kg/injection, schedule: Q04DX004 (sc), vehicle: Klucel (hydroxypropylcellulose) (HPC)
[6] = dose: 300.0 mg/kg/injection, schedule: Q04DX004 (sc), vehicle: saline with Tween-80
[7] = dose: 12.5 mg/kg/injection, schedule: Q04DX004 (sc), vehicle: saline with Tween-80
[8] = dose: 75.0 mg/kg/injection, schedule: Q04DX004 (sc), vehicle: saline with Tween-80
[9] = dose: 150.0 mg/kg/injection, schedule: Q04DX004 (sc), vehicle: saline with Tween-80

C1CC[N-]CC1.C1CC[N-]CC1.C1CC[N-]CC1.[Cl][Rh]([Cl])[Cl]
T/C [1]: 36 % of control | T/C [2]: 25 % of control

CC1CN1C(=O)NCCCCCCNC(=O)N1CC1C (stereo not given)
T/C (dose: 10.0 mg/kg/injection, schedule: Q04DX004 (sc), vehicle: Klucel (hydroxypropylcellulose) (HPC)): 36 % of control | T/C (dose: 40.0 mg/kg/injection, schedule: Q04DX004 (sc), vehicle: Klucel (hydroxypropylcellulose) (HPC)): 16 % of control

CCCCC(=O)OCC(=O)[C@]1(O)Cc2c(O)c3c(c(O)c2[C@@H](OC2CC(NC(=O)C(F)(F)F)C(O)C(C)O2)C1)C(=O)c1c(OC)cccc1C3=O (stereo not given in full)
T/C (dose: 64.0 mg/kg/injection, schedule: Q01DX010 (sc), vehicle: distilled water + Tween-80): 61 % of control | T/C (dose: 128.0 mg/kg/injection, schedule: Q01DX010 (sc), vehicle: distilled water + Tween-80): 83 % of control | T/C (dose: 256.0 mg/kg/injection, schedule: Q01DX010 (sc), vehicle: distilled water + Tween-80): 46 % of control

CCN(CC)CCC(=O)c1ccccc1
T/C (dose: 50.0 mg/kg/injection, schedule: Q04DX004 (sc), vehicle: saline with Tween-80): 65 % of control | T/C (dose: 100.0 mg/kg/injection, schedule: Q04DX004 (sc), vehicle: saline with Tween-80): 60 % of control | T/C (dose: 200.0 mg/kg/injection, schedule: Q04DX004 (sc), vehicle: saline with Tween-80): 50 % of control | T/C (dose: 400.0 mg/kg/injection, schedule: Q04DX004 (sc), vehicle: saline with Tween-80): 77 % of control

Cc1cc(N/N=C/c2ccccn2)nc2ccccc12
T/C [3]: 101 % of control | T/C (dose: 75.0 mg/kg/injection, schedule: Q04DX004 (sc), vehicle: Klucel (hydroxypropylcellulose) (HPC)): 107 % of control | T/C [4]: 123 % of control | T/C [5]: 90 % of control

O=P1(N(CCCl)CCCl)NCCCO1 (stereo not given)
T/C (dose: 40.0 mg/kg/injection, schedule: Q04DX004 (ip), vehicle: saline): 75 % of control | T/C (dose: 50.0 mg/kg/injection, schedule: Q01DX010 (sc), vehicle: saline): 58 % of control | T/C (dose: 60.0 mg/kg/injection, schedule: Q04DX004 (ip), vehicle: saline): 53 % of control | T/C (dose: 90.0 mg/kg/injection, schedule: Q04DX004 (ip), vehicle: saline): 26 % of control

O=Cc1ccc(O)c(O)c1
T/C [6]: 86 % of control | T/C (dose: 600.0 mg/kg/injection, schedule: Q04DX004 (sc), vehicle: saline with Tween-80): 58 % of control | T/C (dose: 1200.0 mg/kg/injection, schedule: Q04DX004 (sc), vehicle: saline with Tween-80): 100 % of control

O=C(NO)c1ccc(O)c(O)c1
T/C (dose: 200.0 mg/kg/injection, schedule: Q04DX004 (sc), vehicle: water): 52 % of control | T/C (dose: 400.0 mg/kg/injection, schedule: Q04DX004 (sc), vehicle: water): 86 % of control

O=C1C=C[C@H](O)[C@@]2(CO)O[C@@H]12
T/C (dose: 6.25 mg/kg/injection, schedule: Q04DX004 (sc), vehicle: saline with Tween-80): 109 % of control | T/C [7]: 82 % of control

O=C(C#Cc1ccccc1)c1ccccc1
T/C (dose: 12.5 mg/kg/injection, schedule: Q04DX004 (sc), vehicle: Klucel (hydroxypropylcellulose) (HPC)): 71 % of control | T/C (dose: 25.0 mg/kg/injection, schedule: Q04DX004 (sc), vehicle: Klucel (hydroxypropylcellulose) (HPC)): 64 % of control | T/C (dose: 50.0 mg/kg/injection, schedule: Q04DX004 (sc), vehicle: Klucel (hydroxypropylcellulose) (HPC)): 88 % of control | T/C (dose: 100.0 mg/kg/injection, schedule: Q04DX004 (sc), vehicle: Klucel (hydroxypropylcellulose) (HPC)): 76 % of control

CCCCCCCCCCCCSC1=C(Cl)C(=O)C(OC)=C(OC)C1=O
T/C [8]: 76 % of control | T/C [9]: 36 % of control | T/C [6]: 25 % of control

CCN(CC)CCOCCO
T/C [1]: 113 % of control | T/C [2]: 89 % of control

CCOC(=O)c1cn(C)c2c1C(O)=C(C(=O)OC)CC(=O)N2
T/C (dose: 225.0 mg/kg/injection, schedule: Q04DX004 (sc), vehicle: saline with Tween-80): 95 % of control | T/C (dose: 450.0 mg/kg/injection, schedule: Q04DX004 (sc), vehicle: saline with Tween-80): 52 % of control | T/C (dose: 1800.0 mg/kg/injection, schedule: Q04DX004 (sc), vehicle: saline with Tween-80): 62 % of control

CC(C)[C@]12O[C@H]1[C@@H]1O[C@]13[C@]1(O[C@H]1C[C@H]1C4=C(C(=O)OC4)[C@@H](O)C[C@@]13C)[C@@H]2O
T/C (dose: 0.1 mg/kg/injection, schedule: Q01DX010 (sc), vehicle: saline + alcohol): 63 % of control | T/C (dose: 0.2 mg/kg/injection, schedule: Q01DX010 (sc), vehicle: saline + alcohol): 77 % of control

COc1cccc2c1C(=O)c1c(O)c3c(c(O)c1C2=O)C[C@@](O)(/C(CO)=N/NC(=O)c1ccc(Cl)c(Cl)c1)C[C@@H]3OC1CC(N)C(O)C(C)O1 (stereo not given in full)
T/C (dose: 4.0 mg/kg/injection, schedule: Q01DX010 (sc), vehicle: water): 226 % of control | T/C (dose: 8.0 mg/kg/injection, schedule: Q01DX010 (sc), vehicle: water): 88 % of control | T/C (dose: 20.0 mg/kg/injection, schedule: Q04DX004 (sc), vehicle: water): 113 % of control | T/C (dose: 40.0 mg/kg/injection, schedule: Q04DX004 (sc), vehicle: water): 59 % of control

Cc1c(CNc2ccc(C(=O)NC(CC(=O)O)C(=O)O)cc2)ccc2nc(N)nc(N)c12 (stereo not given)
T/C [7]: 41 % of control

OCCCN1CCCCC1CO (stereo not given)
T/C (dose: 225.0 mg/kg/injection, schedule: Q04DX004 (sc), vehicle: saline): 106 % of control | T/C (dose: 450.0 mg/kg/injection, schedule: Q04DX004 (sc), vehicle: saline): 89 % of control | T/C (dose: 900.0 mg/kg/injection, schedule: Q04DX004 (sc), vehicle: saline): 92 % of control

COc1c(C=O)c2c(c(OC)c1OC)-c1ccc(OC)c(=O)cc1[C@@H](NC(C)=O)CC2
T/C (dose: 18.75 mg/kg/injection, schedule: Q04DX004 (sc), vehicle: Klucel (hydroxypropylcellulose) (HPC)): 70 % of control | T/C [3]: 71 % of control

CC(=O)NCCCCCCNC(C)=O
T/C (dose: 200.0 mg/kg/injection, schedule: Q01DX010 (sc), vehicle: saline): 88 % of control | T/C (dose: 800.0 mg/kg/injection, schedule: Q01DX010 (sc), vehicle: saline): 95 % of control | T/C (dose: 1600.0 mg/kg/injection, schedule: Q01DX010 (sc), vehicle: saline): 97 % of control and 117 % of control | T/C (dose: 3200.0 mg/kg/injection, schedule: Q01DX010 (sc), vehicle: saline): 110 % of control

CC(C)CC(=O)NC(C(=O)NC(C(=O)NC(CC(C)C)C(O)CC(=O)NC(C)C(=O)NC(CC(C)C)C(O)CC(=O)O)C(C)C)C(C)C (stereo not given)
T/C [4]: 102 % of control | T/C [5]: 87 % of control | T/C (dose: 600.0 mg/kg/injection, schedule: Q04DX004 (sc), vehicle: Klucel (hydroxypropylcellulose) (HPC)): 69 % of control

CC1(CO)C(O)CCC2(C)C1CCC1CC3CC12CCC3(O)CO (stereo not given)
T/C (dose: 50.0 mg/kg/injection, schedule: Q01DX010 (sc), vehicle: saline with Tween-80): 50 % of control and 65 % of control | T/C (dose: 100.0 mg/kg/injection, schedule: Q01DX010 (sc), vehicle: saline with Tween-80): 69 % of control | T/C (dose: 200.0 mg/kg/injection, schedule: Q01DX010 (sc), vehicle: saline with Tween-80): 65 % of control

O=C(O)C1CC1.[Ag]
T/C [8]: 81 % of control | T/C [9]: 64 % of control

OCCO
T/C (dose: 4.0 % in 0.5 ml injection vol, schedule: Q04DX004 (sc), vehicle: other): 85 % of control | T/C (dose: 8.0 % in 0.5 ml injection vol, schedule: Q04DX004 (sc), vehicle: other): 46 % of control | T/C (dose: 16.0 % in 0.5 ml injection vol, schedule: Q04DX004 (sc), vehicle: other): 26 % of control

O=CC(S)CO (stereo not given)
T/C (dose: 100.0 mg/kg/injection, schedule: Q04DX004 (sc), vehicle: suspension in saline): 92 % of control | T/C (dose: 200.0 mg/kg/injection, schedule: Q04DX004 (sc), vehicle: suspension in saline): 69 % of control | T/C (dose: 400.0 mg/kg/injection, schedule: Q04DX004 (sc), vehicle: suspension in saline): 101 % of control | T/C (dose: 800.0 mg/kg/injection, schedule: Q04DX004 (sc), vehicle: suspension in saline): 72 % of control

CC(=O)C1(O)Cc2c(O)c3c(c(O)c2C(OC2CC(N)C(O)C(C)O2)C1)C(=O)c1ccccc1C3=O (stereo not given)
T/C (dose: 1.0 mg/kg/injection, schedule: Q04DX004 (sc), vehicle: water): 67 % of control

CNc1nc(N(C)C)nc(N(C)C)n1
T/C (dose: 12.5 mg/kg/injection, schedule: Q04DX004 (sc), vehicle: water): 54 % of control | T/C (dose: 15.0 mg/kg/injection, schedule: Q01DX010 (sc), vehicle: water): 89 % of control | T/C (dose: 25.0 mg/kg/injection, schedule: Q04DX004 (sc), vehicle: water): 75 % of control | T/C (dose: 50.0 mg/kg/injection, schedule: Q04DX004 (sc), vehicle: water): 51 % of control | T/C (dose: 100.0 mg/kg/injection, schedule: Q04DX004 (sc), vehicle: water): 51 % of control
